± gives the standard deviation of the averaged measurements.
Legend:
Details in all cases: 72 h
Caco-2 [1] = assay: cell viability relative to DMSO; higher = less toxic
Calu-3 [2] = assay: as above
HepG2 [3] = assay: as above
U2OS [4] = assay: as above
Vero E6 [5] = assay: as above
Caco-2 [6] = assay: relative viability EC50 (midpoint between 100% and the lowest measured viability); higher = less toxic
Calu-3 [7] = assay: as above
HepG2 [8] = assay: as above
U2OS [9] = assay: as above
Vero E6 [10] = assay: as above
Caco-2 [11] = assay: drug sensitivity score (DSS) for viability; higher = more toxic; extreme values may be limits of the assay
Calu-3 [12] = assay: as above
HepG2 [13] = assay: as above
U2OS [14] = assay: as above
Vero E6 [15] = assay: as above

SMILES	cell viability (Caco-2 [1]; 1 nM) [%]	cell viability (Caco-2 [1]; 10 nM) [%]	cell viability (Caco-2 [1]; 100 nM) [%]	cell viability (Caco-2 [1]; 1000 nM) [%]	cell viability (Caco-2 [1]; 10000 nM) [%]	cell viability (Calu-3 [2]; 1 nM) [%]	cell viability (Calu-3 [2]; 10 nM) [%]	cell viability (Calu-3 [2]; 100 nM) [%]	cell viability (Calu-3 [2]; 1000 nM) [%]	cell viability (Calu-3 [2]; 10000 nM) [%]	cell viability (HepG2 [3]; 1 nM) [%]	cell viability (HepG2 [3]; 10 nM) [%]	cell viability (HepG2 [3]; 100 nM) [%]	cell viability (HepG2 [3]; 1000 nM) [%]	cell viability (HepG2 [3]; 10000 nM) [%]	cell viability (U2OS [4]; 1 nM) [%]	cell viability (U2OS [4]; 10 nM) [%]	cell viability (U2OS [4]; 100 nM) [%]	cell viability (U2OS [4]; 1000 nM) [%]	cell viability (U2OS [4]; 10000 nM) [%]	cell viability (Vero E6 [5]; 1 nM) [%]	cell viability (Vero E6 [5]; 10 nM) [%]	cell viability (Vero E6 [5]; 100 nM) [%]	cell viability (Vero E6 [5]; 1000 nM) [%]	cell viability (Vero E6 [5]; 10000 nM) [%]	relative viability EC50 (Caco-2 [6]) [µM]	relative viability EC50 (Calu-3 [7]) [µM]	relative viability EC50 (HepG2 [8]) [µM]	relative viability EC50 (U2OS [9]) [µM]	relative viability EC50 (Vero E6 [10]) [µM]	drug sensitivity score (Caco-2 [11])	drug sensitivity score (Calu-3 [12])	drug sensitivity score (HepG2 [13])	drug sensitivity score (U2OS [14])	drug sensitivity score (Vero E6 [15])
CCCCCCCCCC(=O)OCCN1CCN(CCCN2c3ccccc3Sc3ccc(C(F)(F)F)cc32)CC1 [fluphenazine-decanoate]	111	84.8	96.3	98	92.1	101	95.8	98.5	107	91.6	95.5	97.4	96.9	93.7	108	97.2	100	99	100	96.9	104	105	96.3	106	105	> 10	> 10	> 10	> 10	> 10	0	0	0	0	0
O=C1NCN(c2ccccc2)C12CCN(CCCC(c1ccc(F)cc1)c1ccc(F)cc1)CC2 [fluspirilene]	88.3	106	80.5	116	99	101	104	99.4	105	105	112	100	101	88.5	84.8	98.4	103	98.1	105	90.5	115	98.1	103	103	93.7	> 10	> 10	> 10	> 10	> 10	0	0	1.1	0	0
CC(C)=CCC[C@]1(C)C=Cc2c(O)c3c(c(CC=C(C)C)c2O1)O[C@]12C(=C[C@@H]4C[C@H]1C(C)(C)O[C@@]2(C/C=C(/C)C(=O)O)C4=O)C3=O [gambogic-acid]	90.7	102	94.9	1.9	-0.1	100	138	111	4.7	-0.3	97.6	93.6	99.3	15.6	-0.4	98.8	102	94	-0.1	-0.3	105	104	106	6	-0.3	0.288	0.404	0.51	0.269	0.4	18.5	16.6	15.4	18.8	16.7
CC1C(=O)OC2C(O)C34C5CC(C(C)(C)C)C36C(OC(=O)C6O)OC4(C(=O)O5)C12O (stereo not given) [ginkgolide-B]	98	93.4	102	93.8	92.8	106	90.8	103	98.6	106	110	98.4	99	97.3	97.5	106	102	106	96.2	104	100	101	97.1	98.9	100	> 10	> 10	> 10	> 10	> 10	0	0	0	0	0
CCn1ccnc1CC1COc2ccccc2O1 (stereo not given) [imiloxan]	106	87.6	92.9	104	102	97.9	98.5	99.7	107	94.4	90.6	91.6	94.5	93.2	116	101	98.4	99.2	101	104	92.5	99.8	95.9	90.7	102	> 10	> 10	> 10	> 10	> 10	0	0	0	0	0
C1=Cc2cccc(OCC3CNCCO3)c2C1 (stereo not given) [indeloxazine]	101	94.2	86.4	88.9	90.3	105	93.8	104	97.1	97.8	105	111	104	93.1	91.7	95.2	97.8	101	99.3	96.8	104	106	102	102	93.8	> 10	> 10	> 10	> 10	> 10	2.3	0	0	0	0
O=C(O)CCCN1C(=O)c2cccc3cccc(c23)C1=O [isodibut]	105	90.9	93.6	98.6	95.4	99.1	97.8	96.9	94.8	114	96.1	95.8	104	105	98.9	99.3	96.6	97.7	97.6	95.7	97	97.9	103	101	99.1	> 10	> 10	> 10	> 10	> 10	0	0	0	0	0
O=C(/C=C/c1ccc(O)cc1)c1ccc(O)cc1O [isoliquiritigenin]	102	92.1	95.6	92.2	86.4	103	93.7	107	107	112	102	107	91.9	101	96.5	97.3	99.7	103	98.2	94.9	99.4	107	93.6	104	113	> 10	> 10	> 10	> 10	> 10	0.2	0	0	0	0
CCN(C(=O)c1c(O)c2c(Cl)cccc2n(C)c1=O)c1ccccc1 [laquinimod]	90.3	88.5	98.2	106	91.5	110	87.9	91.5	108	102	102	98.6	103	93.4	92.8	96.9	98.9	99.2	97.6	96.9	99.8	99.9	92.8	92.5	91.4	> 10	> 10	> 10	> 10	> 10	0	0	0	0	0
CC(C)(C)NC[C@H](O)COc1cccc2c1CCCC2=O [levobunolol]	88 ± 1.8	94.8 ± 5.9	96 ± 4.7	101.3 ± 0.64	97.2 ± 1.1	99.2 ± 9.6	102 ± 0.99	93.9 ± 3.1	103 ± 3.2	104.25 ± 0.071	100 ± 4.1	95.8 ± 2.8	112 ± 2	94.8 ± 4.3	97.9 ± 2.4	97.15 ± 0.78	102 ± 2	101.5 ± 0.21	101.3 ± 0.78	103 ± 0.21	105 ± 6.1	94.6 ± 2.8	95.6 ± 5.7	90.5 ± 3.1	101 ± 3.8	> 10	> 10	> 10	> 10	> 10	0	0	0	0	0
CC#CCn1c(N2CCC[C@@H](N)C2)nc2c1c(=O)n(Cc1nc(C)c3ccccc3n1)c(=O)n2C [linagliptin]	103	105	89.9	91.4	102	95.9	103	99.2	97.9	102	95.3	93.8	95.7	103	102	98.4	99.8	98.9	107	96.1	97.1	106	105	84.4	110	> 10	> 10	> 10	> 10	> 10	0	0	0	0	0
CC(C)CCNC(=O)[C@H](CC(C)C)NC(=O)[C@H]1O[C@@H]1C(=O)O [loxistatin-acid]	103	95.6	93.1	99	100	101	95.8	101	91.5	105	93.4	98.3	104	103	104	99.4	98.7	101	101	105	103	107	99.4	102	101	> 10	> 10	> 10	> 10	> 10	0	0	0	0	0
Nc1ccccc1NC(=O)c1ccc(CNc2nccc(-c3cccnc3)n2)cc1 [mocetinostat]	95.6	100	102	64.4	17.7	102	89.6	86.8	40	17.7	102	100	88.9	44.2	1.1	98.4	97.2	100	64.2	0.3	95.4	94.7	78	43.4	-0.1	1.12	0.405	0.756	1.26	0.567	9.2	13	12.5	10.4	13.9
CCn1cc(C(=O)O)c(=O)c2ccc(C)nc21 [nalidixic-acid]	96.3	94.4	93.2	99.9	96.8	96.8	89	100	93	102	106	108	90	102	95.6	100	95.8	100	98.3	104	113	107	104	101	89.4	> 10	> 10	> 10	> 10	> 10	0	0	0	0	0

Reference: the supplement of paper PMC13380429
